Assay results from patent US10254288B2, “Method for species-independent measurement of complement activation in animals” (Quidel Corporation, priority 2013, dated 2019).

Key:
[1] = system: C activation in dog serum; assay: Complement activation by different activators in dog serum, pan-species C3 method; format: biochemical; settings: SC5b-9 ELISA to determine SC5b-9
Protocol: Methods • The sera that were not of commercial origin were prepared from freshly drawn blood, which was let to clot at room temperature for 10-30 min, followed by centrifugation and collection of the supernatant. The serum was then stored at −80° C. until use. Zymosan (final concentration: 1.3 mg/ml) was prepared by suspending it at 2% in 0.15 M sodium chloride, boiling in a water bath for one hour, then centrifuged for 30 minutes at 4000 rpm. The supernatant was discarded and the residue suspended evenly in 0.15 M sodium chloride to 2%. • HAGG was diluted 100-fold (to a final concentration: 0.5 mg/mL). • 10 μL Zymosan (20 mg/ml) or HAGG were incubated for 1 h at 37° C. with a mixture of 20 μL animal serum, and 20 μl C3depl-NHS 100 μl PBS. The reaction was stopped by the addition of the 10 μl stop solution, and 100 μL of a 1:1600 dilution from the mixtures were applied to the wells of the SC5b-9 ELISA plates to measure the formation of SC5b-9 as specified by the manufacturer.
Materials and Methods • Dog blood was obtained from WellPet Animal Clinic (Kecskemét, Géza Fejedelem körút 51. Hungary). Serum was prepared by letting the blood clot at 4° C. for about 10 min (dog blood clots rapidly), followed by centrifugation and collection of supernatant serum. […]

rat C3 = assay: C3 consumption in rats in vivo, PS-C3 method in hirudinized plasma samples; settings: 12.5 U/kg CVF
Protocol: Male Wistar rats (340-480 g) were anesthetized i.p. by Na-pentobarbital (Nembutal, 50 mg/kg) or thiobutabarbital (lnactin, 120 mg/kg). The left femoral artery and vein, left carotid artery, and right jugular vein were cannulated. Rats were anticoagualated with lepirudin (Refludan, 5 mg/kg), then injected i.v. with the C activator liposomes, Doxil and Ambisome. Blood samples were collected from the carotid artery at start (time 0) and at 1-3-5-10-30 min postinjection.
Similar experiments as described in Example 7, except that the rats were injected with 10 mg/kg zymosan or 12.5 U/kg CVF.
Similar experiments as described in Example 11, except that C activation was measured by Quidel's human SC5b-9 (A) and C3a kits (B). Rats were injected with 12.5 U/kg CVF.

Row | Compound | rise of SC5b-9 over PBS control [1] [fold] | human C3a in the reaction mixture (Quidel's C3a kit) (rat C3) | time to consume essentially all C3 (rat C3) [min] | C3 consumed (rat C3; within 30 min)
1 | CCCCCCCC/C=C\CCCCCCCC(=O)OCCOCC(OCCO)C1OCC(OCCO)C1OCCO (stereo not shown) [Tween 80] | ~30 |  |  | 
2 | CVF |  | elevated | ≤ 30 | essentially all C3
